Results reported in US12686692B2, “KRas G12D inhibitors” (Mirati Therapeutics, Inc., priority 2020, dated 2026).

The molecules below were run against KRas G12D (Homo sapiens, UniProt P01116, G12D) (assay: KRas G12D Binding Assay (TR-FRET displacement of labeled tracer)). Conditions: TR-FRET displacement of Cy5 labelled tracer, biotinylated GDP-loaded KRAS G12D (aa 1:169), 60 minute incubation at 22° C.
Parameters: corresponding to amino acids 1:169, produced at Array BioPharma; biotin (protein is biotinylated)
Description: This Example illustrates that exemplary compounds of the present invention bind to KRas G12D and are capable of displacing a labeled tracer ligand occupying the KRas G12D binding site.
The ability of a compound to bind to KRAS G12D was measured using a TR-FRET displacement assay. Biotinylated GDP-loaded recombinant human KRAS G12D (corresponding to amino acids 1:169, produced at Array BioPharma) was incubated with a custom-made Cy5 labelled tracer, europium labelled streptavidin and compound (2% DMSO final) in buffer (50 mM HEPES [pH 7.5], 5 mM MgCl2, 0.005% Tween-20 & 1 mM DTT). After a 60 minute incubation at 22° C., the reaction was measured using a PerkinElmer EnVision multimode plate reader via TR-FRET dual wavelength detection, and the percent of control (POC) calculated using a ratiometric emission factor. […] The POC values were fit to a 4-parameter logistic curve and the IC50 value was determined as the concentration where the curve crosses 50 POC.

Sequence of KRas G12D (P01116 1-169 isoform P01116-2 G12D): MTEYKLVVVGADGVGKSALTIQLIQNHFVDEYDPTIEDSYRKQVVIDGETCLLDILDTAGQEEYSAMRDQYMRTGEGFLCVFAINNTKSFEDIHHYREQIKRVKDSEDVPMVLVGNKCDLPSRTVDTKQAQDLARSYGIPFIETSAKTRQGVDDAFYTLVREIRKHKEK

IC50	SMILES
345 nM	Clc1ccc2cccc(N3CCc4c(nc(OCC56CCCN5CCC6)nc4N4C[C@H]5CC[C@@H](C4)N5)C3)c2c1Cl [Example 12, 4-((1R,5S)-3,8-diazabicyclo[3.2.1]octan-3-yl)-7-(7,8-dichloronaphthalen-1-yl)-2-((tetrahydro-1H-pyrrolizin-7a(5H)-yl)methoxy)-5,6,7,8-tetrahydropyrido[3,4-d]pyrimidine]
2690 nM	CN1CCC[C@H]1COc1nc2c(c(N3C[C@H]4C[C@@H](CCN)[C@@H](C3)N4)n1)CCN(c1cccc3cccc(Cl)c13)C2 [Example 39, 2-((1R,5S,6R)-3-(7-(8-chloronaphthalen-1-yl)-2-(((S)-1-methylpyrrolidin-2-yl)methoxy)-5,6,7,8-tetrahydropyrido[3,4-d]pyrimidin-4-yl)-3,8-diazabicyclo[3.2.1]octan-6-yl)ethan-1-amine]
5490 nM	CN1CCC[C@H]1COc1nc2c(c(N3C[C@H]4C[C@@H](C#N)[C@@H](C3)N4)n1)CCN(c1cccc3cccc(Cl)c13)C2 [Example 92, (1R,5S,6R)-3-(7-(8-chloronaphthalen-1-yl)-2-(((S)-1-methylpyrrolidin-2-yl)methoxy)-5,6,7,8-tetrahydropyrido[3,4-d]pyrimidin-4-yl)-3,8-diazabicyclo[3.2.1]octane-6-carbonitrile]
852 nM	COC[C@H]1C[C@@H]2CN(c3nc(OC[C@@H]4CCCN4C)nc4c3CCN(c3cccc5cccc(Cl)c35)C4)C[C@H]1N2 (single isomer, unassigned) [Example 94]
1050 nM	Brc1cc(N2CCc3c(nc(OCC45CCCN4CCC5)nc3N3C[C@H]4CC[C@@H](C3)N4)C2)c2ccccc2c1 [Example 111, 4-((1R,5S)-3,8-diazabicyclo[3.2.1]octan-3-yl)-7-(3-bromonaphthalen-1-yl)-2-((tetrahydro-1H-pyrrolizin-7a(5H)-yl)methoxy)-5,6,7,8-tetrahydropyrido[3,4-d]pyrimidine]
756 nM	c1cc2c(c(N3CCc4c(nc(OCC56CCCN5CCC6)nc4N4C[C@H]5CC[C@@H](C4)N5)C3)c1)CCC2 [Example 104, 4-((1R,5S)-3,8-diazabicyclo[3.2.1]octan-3-yl)-7-(2,3-dihydro-1H-inden-4-yl)-2-((tetrahydro-1H-pyrrolizin-7a(5H)-yl)methoxy)-5,6,7,8-tetrahydropyrido[3,4-d]pyrimidine]
710 nM	CCCCc1cccc2cccc(N3CCc4c(nc(OC[C@@H]5CCCN5C)nc4N4C[C@H]5CC[C@@H](C4)N5)C3)c12 [Example 81, 4-((1R,5S)-3,8-diazabicyclo[3.2.1]octan-3-yl)-7-(8-butylnaphthalen-1-yl)-2-(((S)-1-methylpyrrolidin-2-yl)methoxy)-5,6,7,8-tetrahydropyrido[3,4-d]pyrimidine]
2490 nM	FC1(F)CCc2c(N3CCc4c(nc(OCC56CCCN5CCC6)nc4N4C[C@H]5CC[C@@H](C4)N5)C3)cccc21 [Example 101, 4-((1R,5S)-3,8-diazabicyclo[3.2.1]octan-3-yl)-7-(1,1-difluoro-2,3-dihydro-1H-inden-4-yl)-2-((tetrahydro-1H-pyrrolizin-7a(5H)-yl)methoxy)-5,6,7,8-tetrahydropyrido[3,4-d]pyrimidine]
> 10000 nM	CN1CCC[C@H]1COc1nc2c(c(N3C[C@H]4CC[C@@H](C3)N4)n1)CCN(c1nc(N)cc3ccccc13)C2 [Example 60, 1-(4-((1R,5S)-3,8-diazabicyclo[3.2.1]octan-3-yl)-2-(((S)-1-methylpyrrolidin-2-yl)methoxy)-5,8-dihydropyrido[3,4-d]pyrimidin-7(6H)-yl)isoquinolin-3-amine]
807 nM	CN1CCC[C@H]1COc1nc2c(c(N3C[C@H]4CC[C@@H](C3)N4)n1)CCN(c1cccc3cc(O)cc(Cl)c13)C2 [Example 113, 5-(4-((1R,5S)-3,8-diazabicyclo[3.2.1]octan-3-yl)-2-(((S)-1-methylpyrrolidin-2-yl)methoxy)-5,6-dihydropyrido[3,4-d]pyrimidin-7(8H)-yl)-4-chloronaphthalen-2-ol]
7900 nM	CN1CCC[C@H]1COc1nc2c(c(N3C[C@H]4CC[C@@H](C3)N4)n1)CCN(c1cccc3c(Cl)cccc13)C2 [Example 15, 4-((1R,5S)-3,8-diazabicyclo[3.2.1]octan-3-yl)-7-(5-chloronaphthalen-1-yl)-2-(((S)-1-methylpyrrolidin-2-yl)methoxy)-5,6,7,8-tetrahydropyrido[3,4-d]pyrimidine]
1760 nM	CN1CCC[C@H]1COc1nc2c(c(N3C[C@H]4CC[C@@H](C3)N4)n1)CCN(c1cccc3c(F)cccc13)C2 [Example 16, 4-((1R,5S)-3,8-diazabicyclo[3.2.1]octan-3-yl)-7-(5-fluoronaphthalen-1-yl)-2-(((S)-1-methylpyrrolidin-2-yl)methoxy)-5,6,7,8-tetrahydropyrido[3,4-d]pyrimidine]
1800 nM	CN1CCC[C@H]1COc1nc2c(c(N3CC4CCC(CC#N)(C3)N4)n1)CCN(c1cccc3cccc(Cl)c13)C2 (stereo partly drawn) [Example 42, 2-(3-(7-(8-chloronaphthalen-1-yl)-2-(((S)-1-methylpyrrolidin-2-yl)methoxy)-5,6,7,8-tetrahydropyrido[3,4-d]pyrimidin-4-yl)-3,8-diazabicyclo[3.2.1]octan-1-yl)acetonitrile]
654 nM	c1cc2c(c(N3CCc4c(nc(OCC56CCCN5CCC6)nc4N4C[C@H]5CC[C@@H](C4)N5)C3)c1)C(C1CC1)CC2 (stereo partly drawn) [Example 102, 4-((1R,5S)-3,8-diazabicyclo[3.2.1]octan-3-yl)-7-(3-cyclopropyl-2,3-dihydro-1H-inden-4-yl)-2-((tetrahydro-1H-pyrrolizin-7a(5H)-yl)methoxy)-5,6,7,8-tetrahydropyrido[3,4-d]pyrimidine]
1170 nM	CC(C)c1ccccc1N1CCc2c(nc(OCC34CCCN3[C@@H](COC(=O)N(C)C)CC4)nc2N2CC3CCC(C2)N3)C1 (stereo partly drawn) [Example 32, (7a-(((4-((1R,5S)-3,8-diazabicyclo[3.2.1]octan-3-yl)-7-(2-isopropylphenyl)-5,6,7,8-tetrahydropyrido[3,4-d]pyrimidin-2-yl)oxy)methyl)hexahydro-1H-pyrrolizin-3-yl)methyl dimethylcarbamate (trans enantiomers)]
12.3 nM	CNC(=O)OC[C@H]1CCC2(COc3nc4c(c(N5CC6CCC(C5)N6)n3)CCN(c3cccc5cccc(C)c35)C4)CCCN12 (stereo partly drawn) [Example 21, (7a-(((4-((1R,5S)-3,8-diazabicyclo[3.2.1]octan-3-yl)-7-(8-methylnaphthalen-1-yl)-5,6,7,8-tetrahydropyrido[3,4-d]pyrimidin-2-yl)oxy)methyl)hexahydro-1H-pyrrolizin-3-yl)methyl methylcarbamate (trans enantiomers)]
2.1 nM	CCc1c(F)ccc2cc(O)cc(N3CCc4c(nc(OC[C@@]56CCCN5C[C@H](F)C6)nc4N4C[C@H]5CC[C@@H](C4)N5)C3)c12 [Example 118, 4-(4-((1R,5S)-3,8-diazabicyclo[3.2.1]octan-3-yl)-2-(((2R,7aS)-2-fluorohexahydro-1H-pyrrolizin-7a-yl)methoxy)-5,6-dihydropyrido[3,4-d]pyrimidin-7(8H)-yl)-5-ethyl-6-fluoronaphthalen-2-ol]
3130 nM	CN1CCC[C@H]1COc1nc2c(c(N3CC4CC(O)(C(F)F)C(C3)N4)n1)CCN(c1cccc3cccc(Cl)c13)C2 (stereo partly drawn) [Example 41, 3-(7-(8-chloronaphthalen-1-yl)-2-(((S)-1-methylpyrrolidin-2-yl)methoxy)-5,6,7,8-tetrahydropyrido[3,4-d]pyrimidin-4-yl)-6-(difluoromethyl)-3,8-diazabicyclo[3.2.1]octan-6-ol]

SMILES	IC50
CCc1cccc2cccc(N3CCc4c(nc(OC[C@@]56CCCN5C[C@H](F)C6)nc4C4CC5CCC(N5)C4O)C3)c12 (stereo in doubt) [Example 123, (1S,3R,5R)-3-(7-(8-ethylnaphthalen-1-yl)-2-(((2R,7aS)-2-fluorotetrahydro-1H-pyrrolizin-7a(5H)-yl)methoxy)-5,6,7,8-tetrahydropyrido[3,4-d]pyrimidin-4-yl)-8-azabicyclo[3.2.1]octan-2-ol]	508 nM
CCc1cccc2cccc(N3CCc4c(nc(OC[C@@]56CCCN5C[C@H](F)C6)nc4[C@@H]4C[C@H]5CC[C@@H](C4)N5)C3)c12 [Example 122, 4-((1R,3s,5S)-8-azabicyclo[3.2.1]octan-3-yl)-7-(8-ethylnaphthalen-1-yl)-2-(((2R,7aS)-2-fluorotetrahydro-1H-pyrrolizin-7a(5H)-yl)methoxy)-5,6,7,8-tetrahydropyrido[3,4-d]pyrimidine]	234 nM
